# Results published in patent publication US12516052B2, “Methyltransferase 5 (PRMT5) inhibitors and methods of treatment” (THE TRUSTEES OF INDIANA UNIVERSITY, priority 2016, dated 2026).
# Tested on: NF-κB
# Test: NF-κB luciferase assay in HT29 cells
# Format: cell-based
# Conditions: increasing concentrations
# Text: Previously, it was discovered that PRMT5 activates NF-κB through methylation of its p65 subunit in HEK293 cells (Wei et al., Proc Natl Acad Sci USA, 2013; 110: 13516-13521; Wei et al., Cell Cycle, 2013; 13: 32-41). As shown in FIGS. 11A and 11B, overexpression of PRMT5 enhances NF-κB activity, while PRMT5 knockdown causes the opposite effect in both PANC1 (FIG. 11A) and HT-29 (FIG. 11B) cells. To determine if compound (IIa) decreases NF-κB activity, cells transfected with a NF-κB luciferase construct were treated with increasing concentrations of compound (IIa) or the control compound EPZ015666.
smiles,measurement,value
Cc1ccc(Nc2nc(NCCN(C)C)nc3c2cnn3-c2ccccc2)cc1C [compound (IIa)],"NF-κB activation (luciferase), HT29",corresponding decrease in NF-κB activation
